Assay: Phase I safety: adverse events, adverse drug reactions, DLTs in patients with advanced solid tumors
Assay type: in vivo, human
Excerpt: This was a phase I, open-label, non-randomized, dose-escalating first-in-human study to evaluate the safety, pharmacokinetics, antitumor activity, pharmacodynamics, and pharmacogenomics of TAS-117 in patients with advanced solid tumors. The study had three phases: a dose escalation phase (DEP), a regimen modification phase (RMP), and a safety assessment phase (SAP). The treatment cycle on each regimen lasted 21 days. The DEP used an accelerated titration and 3 + 3 design. TAS-117 was administered orally once daily (QD) on an empty stomach (1 h before or 2 h after a meal). Dosing was determined based on a 4-week repeated oral-dose toxicology study in monkeys (data on file, Taiho Pharmaceutical Co., Ltd.); the highest non-severely toxic dose was 1.2 mg/kg/day, which was converted to 3.84 mg/body/day, or 2.4 mg/m^2. Therefore, the starting dose was determined to be ≤ 2.4 mg/m^2. At dose level 1, TAS-117 was administered at 2 mg QD (Day − 2), and the dose was increased to 4 mg QD after 2 days (Day 1). The RMP was conducted according to a 3 + 3 design. During this phase, the dose regimen was changed from QD administration to intermittent dosing of daily TAS-117 with 4 days on/3 days off. TAS-117 was administered on an empty stomach. Dose-limiting toxicities (DLTs) were evaluated in Cycle 1 of the DEP and RMP. […] The RD and regimen for the SAP were determined based on the safety, pharmacokinetics, pharmacodynamics, and antitumor activity profile determined in the DEP and RMP. During the SAP, the safety and preliminary efficacy profiles of TAS-117 were assessed at the RD and recommended regimen. Three cohorts were included in this assessment. Cohort 1 included patients with endometrial cancer with a PIK3CA mutation; cohort 2 included patients with endometrial cancer with an AKT1 mutation, AKT1 amplification, or AKT2 amplification; and cohort 3 included patients with ovarian clear cell carcinoma.
The primary endpoints were the proportion of patients who experienced DLTs in Cycle 1 of the DEP and RMP and the incidence of adverse events (AEs) and adverse drug reactions (ADRs) in the SAP. AEs and ADRs were coded using the Medical Dictionary for Regulatory Activities (MedDRA; version 24.1) and graded according to the National Cancer Institute Common Terminology Criteria for Adverse Events (CTCAE; version 4.03). Secondary endpoints were pharmacokinetic findings, changes in the ratio of phosphorylated PRAS40 (pPRAS40)/total PRAS40 from baseline, efficacy, and pharmacogenomics findings.

In the case of C[C@]1(O)C[C@@](N)(c2ccc(-c3nc4n(c3-c3ccccc3)COc3ccncc3-4)cc2)C1 [TAS-117], the “Adverse drug reactions: AST increased” value (SAP n = 43, All grade) is reported as 6 (14.0) n (%), the “Adverse drug reactions: Any events” value (SAP n = 43, All grade) is reported as 43 (100.0) n (%) and the “Adverse drug reactions: Blood AP increased” value (SAP n = 43, All grade) is reported as 5 (11.6) n (%). For the same compound, the “Adverse drug reactions: Decreased appetite” value (SAP n = 43, All grade) was 3 (7.0) n (%), the “Adverse drug reactions: Diarrhea” value (SAP n = 43, All grade) was 5 (11.6) n (%) and the “Adverse drug reactions: Dry skin” value (SAP n = 43, All grade) was 7 (16.3) n (%). The “Adverse drug reactions: GGT increased” value (SAP n = 43, All grade) was 5 (11.6) n (%), the “Adverse drug reactions: GI disorders” value (SAP n = 43, All grade) was 29 (67.4) n (%) and the “Adverse drug reactions: General disorders and administration site conditions” value (SAP n = 43, All grade) was 20 (46.5) n (%). For the same compound, the “Adverse drug reactions: Hyperglycemia” value (SAP n = 43, All grade) was 23 (53.5) n (%), the “Adverse drug reactions: Investigations” value (SAP n = 43, All grade) was 28 (65.1) n (%) and the “Adverse drug reactions: Metabolism and nutrition disorders” value (SAP n = 43, All grade) was 26 (60.5) n (%). The “Adverse drug reactions: Nausea” value (SAP n = 43, All grade) was 12 (27.9) n (%), the “Adverse drug reactions: Neutrophil count decreased” value (SAP n = 43, All grade) was 15 (34.9) n (%) and the “Adverse drug reactions: Pruritus” value (SAP n = 43, All grade) was 8 (18.6) n (%). For the same compound, the “Adverse drug reactions: Pyrexia” value (SAP n = 43, All grade) was 12 (27.9) n (%), the “Adverse drug reactions: Rash maculo-papular” value (SAP n = 43, All grade) was 40 (93.0) n (%) and the “Adverse drug reactions: Skin and SC tissue disorders” value (SAP n = 43, All grade) was 41 (95.3) n (%). The “Adverse drug reactions: Stomatitis” value (SAP n = 43, All grade) was 26 (60.5) n (%), the “Adverse drug reactions: Vomiting” value (SAP n = 43, All grade) was 4 (9.3) n (%) and the “Adverse drug reactions: WBC count decreased” value (SAP n = 43, All grade) was 19 (44.2) n (%). The “Adverse events: ALT increased” value (SAP n = 43, All grade) was 8 (18.6) n (%), the “Adverse events: AST increased” value (SAP n = 43, All grade) was 8 (18.6) n (%) and the “Adverse events: Any events” value (SAP n = 43, All grade) was 43 (100.0) n (%). The “Adverse events: Blood AP increased” value (SAP n = 43, All grade) was 5 (11.6) n (%), the “Adverse events: Decreased appetite” value (SAP n = 43, All grade) was 7 (16.3) n (%) and the “Adverse events: Diarrhea” value (SAP n = 43, All grade) was 9 (20.9) n (%). The “Adverse events: Dry skin” value (SAP n = 43, All grade) was 10 (23.3) n (%), the “Adverse events: GGT increased” value (SAP n = 43, All grade) was 7 (16.3) n (%) and the “Adverse events: GI disorders” value (SAP n = 43, All grade) was 35 (81.4) n (%). The “Adverse events: General disorders and administration site conditions” value (SAP n = 43, All grade) was 25 (58.1) n (%), the “Adverse events: Hyperglycemia” value (SAP n = 43, All grade) was 23 (53.5) n (%) and the “Adverse events: Investigations” value (SAP n = 43, All grade) was 29 (67.4) n (%). For the same compound, the “Adverse events: Metabolism and nutrition disorders” value (SAP n = 43, All grade) was 28 (65.1) n (%), the “Adverse events: Nausea” value (SAP n = 43, All grade) was 15 (34.9) n (%) and the “Adverse events: Neutrophil count decreased” value (SAP n = 43, All grade) was 15 (34.9) n (%). The “Adverse events: Pruritus” value (SAP n = 43, All grade) was 8 (18.6) n (%), the “Adverse events: Pyrexia” value (SAP n = 43, All grade) was 17 (39.5) n (%) and the “Adverse events: Rash maculo-papular” value (SAP n = 43, All grade) was 40 (93.0) n (%). For the same compound, the “Adverse events: Skin and SC tissue disorders” value (SAP n = 43, All grade) was 41 (95.3) n (%), the “Adverse events: Stomatitis” value (SAP n = 43, All grade) was 27 (62.8) n (%) and the “Adverse events: Vomiting” value (SAP n = 43, All grade) was 8 (18.6) n (%). For the same compound, the “Adverse events: WBC count decreased” value (SAP n = 43, All grade) was 19 (44.2) n (%), the “Adverse drug reactions: ALT increased” value (SAP n = 43, ≥ Grade 3) was 2 (4.7) n (%) and the “Adverse drug reactions: AST increased” value (SAP n = 43, ≥ Grade 3) was 0 (0.0) n (%). The “Adverse drug reactions: Any events” value (SAP n = 43, ≥ Grade 3) was 30 (69.8) n (%), the “Adverse drug reactions: Blood AP increased” value (SAP n = 43, ≥ Grade 3) was 0 (0.0) n (%) and the “Adverse drug reactions: Decreased appetite” value (SAP n = 43, ≥ Grade 3) was 0 (0.0) n (%). For the same compound, the “Adverse drug reactions: Diarrhea” value (SAP n = 43, ≥ Grade 3) was 0 (0.0) n (%), the “Adverse drug reactions: Dry skin” value (SAP n = 43, ≥ Grade 3) was 0 (0.0) n (%) and the “Adverse drug reactions: GGT increased” value (SAP n = 43, ≥ Grade 3) was 4 (9.3) n (%). The “Adverse drug reactions: GI disorders” value (SAP n = 43, ≥ Grade 3) was 1 (2.3) n (%), the “Adverse drug reactions: General disorders and administration site conditions” value (SAP n = 43, ≥ Grade 3) was 0 (0.0) n (%) and the “Adverse drug reactions: Hyperglycemia” value (SAP n = 43, ≥ Grade 3) was 7 (16.3) n (%). For the same compound, the “Adverse drug reactions: Investigations” value (SAP n = 43, ≥ Grade 3) was 16 (37.2) n (%), the “Adverse drug reactions: Metabolism and nutrition disorders” value (SAP n = 43, ≥ Grade 3) was 7 (16.3) n (%) and the “Adverse drug reactions: Nausea” value (SAP n = 43, ≥ Grade 3) was 0 (0.0) n (%). The “Adverse drug reactions: Neutrophil count decreased” value (SAP n = 43, ≥ Grade 3) was 9 (20.9) n (%), the “Adverse drug reactions: Pruritus” value (SAP n = 43, ≥ Grade 3) was 0 (0.0) n (%) and the “Adverse drug reactions: Pyrexia” value (SAP n = 43, ≥ Grade 3) was 0 (0.0) n (%). For the same compound, the “Adverse drug reactions: Rash maculo-papular” value (SAP n = 43, ≥ Grade 3) was 20 (46.5) n (%), the “Adverse drug reactions: Skin and SC tissue disorders” value (SAP n = 43, ≥ Grade 3) was 21 (48.8) n (%) and the “Adverse drug reactions: Stomatitis” value (SAP n = 43, ≥ Grade 3) was 1 (2.3) n (%). For the same compound, the “Adverse drug reactions: Vomiting” value (SAP n = 43, ≥ Grade 3) was 0 (0.0) n (%), the “Adverse drug reactions: WBC count decreased” value (SAP n = 43, ≥ Grade 3) was 5 (11.6) n (%) and the “Adverse events: ALT increased” value (SAP n = 43, ≥ Grade 3) was 2 (4.7) n (%). For the same compound, the “Adverse events: AST increased” value (SAP n = 43, ≥ Grade 3) was 0 (0.0) n (%), the “Adverse events: Any events” value (SAP n = 43, ≥ Grade 3) was 34 (79.1) n (%) and the “Adverse events: Blood AP increased” value (SAP n = 43, ≥ Grade 3) was 0 (0.0) n (%). For the same compound, the “Adverse events: Decreased appetite” value (SAP n = 43, ≥ Grade 3) was 1 (2.3) n (%), the “Adverse events: Diarrhea” value (SAP n = 43, ≥ Grade 3) was 0 (0.0) n (%) and the “Adverse events: Dry skin” value (SAP n = 43, ≥ Grade 3) was 0 (0.0) n (%). The “Adverse events: GGT increased” value (SAP n = 43, ≥ Grade 3) was 6 (14.0) n (%), the “Adverse events: GI disorders” value (SAP n = 43, ≥ Grade 3) was 2 (4.7) n (%) and the “Adverse events: General disorders and administration site conditions” value (SAP n = 43, ≥ Grade 3) was 0 (0.0) n (%). For the same compound, the “Adverse events: Hyperglycemia” value (SAP n = 43, ≥ Grade 3) was 7 (16.3) n (%), the “Adverse events: Investigations” value (SAP n = 43, ≥ Grade 3) was 18 (41.9) n (%) and the “Adverse events: Metabolism and nutrition disorders” value (SAP n = 43, ≥ Grade 3) was 9 (20.9) n (%). For the same compound, the “Adverse events: Nausea” value (SAP n = 43, ≥ Grade 3) was 0 (0.0) n (%), the “Adverse events: Neutrophil count decreased” value (SAP n = 43, ≥ Grade 3) was 9 (20.9) n (%) and the “Adverse events: Pruritus” value (SAP n = 43, ≥ Grade 3) was 0 (0.0) n (%). For the same compound, the “Adverse events: Pyrexia” value (SAP n = 43, ≥ Grade 3) was 0 (0.0) n (%), the “Adverse events: Rash maculo-papular” value (SAP n = 43, ≥ Grade 3) was 20 (46.5) n (%) and the “Adverse events: Skin and SC tissue disorders” value (SAP n = 43, ≥ Grade 3) was 21 (48.8) n (%). For the same compound, the “Adverse events: Stomatitis” value (SAP n = 43, ≥ Grade 3) was 1 (2.3) n (%), the “Adverse events: Vomiting” value (SAP n = 43, ≥ Grade 3) was 0 (0.0) n (%) and the “Adverse events: WBC count decreased” value (SAP n = 43, ≥ Grade 3) was 5 (11.6) n (%). The “Death (grade 5 respiratory failure, judged unrelated to TAS-117)” value (SAP, cohort 1) was “One patient”, the “Adverse drug reactions: ALT increased” value (Total N = 65, All grade) was 7 (10.8) n (%) and the “Adverse drug reactions: AST increased” value (Total N = 65, All grade) was 8 (12.3) n (%). For the same compound, the “Adverse drug reactions: Any events” value (Total N = 65, All grade) was 64 (98.5) n (%).
